Assay results from patent US12357629B2, “Uses of BCL-2 antagonists for treating cancer and diagnostics related thereto” (Emory University, priority 2018, dated 2025).
“Also recorded” adds a separate entry of the source. Like-named read-outs stand apart in the source and are kept apart here.

How the values were obtained:
[1] = tested on: ABT-199 resistant MM lines (KMS11, L363, RPMI-8226, MM.1S, U266)
Experimental: Complex I inhibition with piercidin or SDHA inhibition with 3-NPA. L363, MM.15 and KMS 11 cells were cultured in the presence or absence of 0.S μM ABT-199 with or without either Complex I inhibitor piericidin (0.001 mM) or Complex II inhibitor 3NPA (1 mM) or TTFA (100 μM) for 24 hrs.
KMS11, L363, RPMI-8226, MM.1S, U266 (ABT-199 resistant cell lines) and KMS12PE and OCIMY5 (ABT-199 sensitive cell lines) were cultured in presence of SQR inhibitor TTFA (100 uM) or DEX (0.5 uM) either alone or in combination with ABT-199 (0.5 uM) for 24 hrs. Cell viability was assessed by Annexin V-DAPI staining and Flow cytometry.
Resistant MM lines were treated with TTFA and/or a dose range of ABT-199 and cell death evaluated by Annexin V/DAPI staining.

[2] = target: Complex II/SDH succinate ubiquinone reductase (SQR) activity (Homo sapiens, UniProt O14521+P21912+P31040+Q99643); experiment: SQR (succinate ubiquinone reductase) activity assay in permeabilized cells, DCPIP absorbance at 600 nm; conditions: for SQR activity upon addition of inhibitor: KMS11 cells, 20 mM succinate as substrate, malonate 5 mM
Experimental: Cells are resuspended in permeabilization buffer (10 mM KH2PO4 pH 7.8, 2 mM EDTA and 1 mg/ml BSA). 20 mM succinate is added as a substrate with or without 5 mM malonate (an SDH inhibitor) followed by a 10 min incubation at RT. SQR activity is determined by measuring electron transfer from succinate to decylubiquinone and 2,6-dichlorophenolindophenol (DCPIP) that leads to a change in absorbance of DCPIP monitored at 600 nm for 10 min.
SQR activity is measured in live permeabilized cells, with intact mitochondria by pre-treating with inhibitors of Complex I (rotenone) and Complex III (antimycin) leaving Complex II/SDH activity intact. SQR activity correlates with electron transfer from ubiquinone bound in SQR's Qp site to the redox sensitive dye, DCIPIP.

[3] = tested on: normal cell populations contained within the bone marrow aspirate of patient sample; experiment: Cytotoxicity in normal cells within myeloma patient sample; type: cell-based
Excerpt: Synthetic lethality are not cytotoxic as a single agent in cell lines or primary normal cells associated with a myeloma patient sample.

[4] = tested on: MM patients exhibiting the (11;14) translocation; conditions: t(11;14) patients, cited from earlier work
[5] = tested on: CD38+ve MM cells from myeloma patient samples; experiment: Cytotoxicity in myeloma patient sample cells; type: cell-based, human; conditions: TTFA with ABT-199
[6] = tested on: BIM, BIM-Bcl-2 binding, Foxo3a; experiment: Protein expression and co-immunoprecipitation analyses upon SDH inhibition; type: cell-based
Excerpt: Thus, a tumor selective approach of metabolically-driven synthetic lethality relies on inhibition of the mitochondrial enzyme SDH and use of the Bcl-2 antagonist, e.g., ABT-199 for myeloma therapy.

[7] = ABT-199 0.5 μM with TTFA 100 μM, piericidin 0.001 mM or 3NPA 1 mM, 24 hrs, Annexin V/DAPI

Sequence of Complex II/SDH succinate ubiquinone reductase (SQR) activity (P31040 43-664): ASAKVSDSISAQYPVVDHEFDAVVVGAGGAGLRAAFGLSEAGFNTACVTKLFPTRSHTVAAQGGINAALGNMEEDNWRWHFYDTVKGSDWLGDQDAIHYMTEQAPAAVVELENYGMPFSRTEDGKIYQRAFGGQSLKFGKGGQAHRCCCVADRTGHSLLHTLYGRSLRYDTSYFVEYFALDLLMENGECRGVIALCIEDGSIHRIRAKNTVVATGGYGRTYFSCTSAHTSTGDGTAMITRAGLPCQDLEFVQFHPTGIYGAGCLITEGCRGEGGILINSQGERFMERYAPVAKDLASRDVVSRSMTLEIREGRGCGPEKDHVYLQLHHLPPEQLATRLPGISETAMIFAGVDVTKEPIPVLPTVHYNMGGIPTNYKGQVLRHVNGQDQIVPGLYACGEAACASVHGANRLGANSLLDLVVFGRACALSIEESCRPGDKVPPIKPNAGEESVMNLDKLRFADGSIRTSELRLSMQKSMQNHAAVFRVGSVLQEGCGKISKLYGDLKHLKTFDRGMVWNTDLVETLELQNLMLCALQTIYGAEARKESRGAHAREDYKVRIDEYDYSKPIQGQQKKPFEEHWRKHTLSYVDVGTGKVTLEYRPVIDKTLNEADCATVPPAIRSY
Sequence of Complex II/SDH succinate ubiquinone reductase (SQR) activity (P21912 29-280): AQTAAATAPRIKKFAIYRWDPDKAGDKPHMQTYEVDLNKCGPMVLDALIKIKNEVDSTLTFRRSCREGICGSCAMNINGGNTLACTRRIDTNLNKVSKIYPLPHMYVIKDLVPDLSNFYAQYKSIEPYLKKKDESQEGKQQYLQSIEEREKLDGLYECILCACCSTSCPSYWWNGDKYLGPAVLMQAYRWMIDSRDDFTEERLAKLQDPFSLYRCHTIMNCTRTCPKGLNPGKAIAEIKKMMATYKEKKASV
Sequence of Complex II/SDH succinate ubiquinone reductase (SQR) activity (Q99643 30-169): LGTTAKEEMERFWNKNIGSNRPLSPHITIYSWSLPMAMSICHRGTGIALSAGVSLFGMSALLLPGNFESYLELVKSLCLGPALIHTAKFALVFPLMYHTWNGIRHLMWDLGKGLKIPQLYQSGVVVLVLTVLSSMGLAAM
Sequence of Complex II/SDH succinate ubiquinone reductase (SQR) activity (O14521 57-159): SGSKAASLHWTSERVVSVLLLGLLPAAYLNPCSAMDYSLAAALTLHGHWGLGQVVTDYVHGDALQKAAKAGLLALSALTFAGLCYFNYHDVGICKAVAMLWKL

Molecule: O=C(O)CC[N+](=O)[O-] [3-NPA]
- Sensitization of resistant MM cell lines to ABT-199 [1, 7]: not as effective
- Sensitization of resistant MM cell lines to ABT-199 ([1]; ABT-199 0.5 μM with TTFA 100 μM, piericidin 0.001 mM or 3NPA 1 mM, 24 hrs, Annexin V/DAPI, listed as 3NPA): not as effective as TTFA

Molecule: C/C=C(\C)[C@H](O)[C@H](C)/C=C(C)/C=C/C/C(C)=C/Cc1nc(OC)c(OC)c(O)c1C [piericidin]
- Sensitization of resistant MM cell lines to ABT-199 [1, 7]: not as effective

Molecule: malonate
- SQR activity upon addition of inhibitor [2]: lack of activity

Molecule: CC1(C)CCC(CN2CCN(c3ccc(C(=O)NS(=O)(=O)c4ccc(NCC5CCOCC5)c([N+](=O)[O-])c4)c(Oc4cnc5[nH]ccc5c4)c3)CC2)=C(c2ccc(Cl)cc2)C1 [ABT-199, 4-(4-{[2-(4-chlorophenyl)-4,4-dimethylcyclohex-1-en-1-yl]methyl}piperazin-1-yl)-N-({3-nitro-4-[(tetrahydro-2H-pyran-4-ylmethyl)amino]phenyl}sulfonyl)-2-(1H-pyrrolo[2,3-b]pyridin-5-yloxy)benzamide]
- Cytotoxicity in normal cells of myeloma patient sample ([3]; bone marrow aspirate of patient sample #2): did not exhibit significant cytotoxicity
- Cytotoxicity as single agent in MM ([1]; individually): did not elicit cytotoxicity
- Share of t(11;14) MM patients responsive to single agent ([4]; listed as venetoclax): About 40%
- Share of t(11;14) MM patients responsive to single agent [4]: 40%

Molecule: COc1[nH]c(=O)c(C(=O)C(C)CC(C)C(Cl)CCl)c(O)c1OC (centres unmarked) [atpenin A5, 3-[5,6-dichloro-2,4-dimethylhexanoyl]-4-hydroxy-5,6-dimethoxy-1H-pyridin-2-one]
- Sensitization of resistant MM cell lines to ABT-199 [1, 7]: sensitizes resistant cell lines

Molecule: O=C(CC(=O)C(F)(F)F)c1cccs1 [TTFA, 4,4,4-trifluoro-1-(thiophen-2-yl)butane-1,3-dione]
- SQR activity upon addition of inhibitor [2]: lack of activity
- SQR activity at maximal dose of TTFA that did not cause cytotoxicity in MM ([2]; MM cells): inhibited SQR activity
- Sensitization of MM patient cells to ABT-199 [5]: potent sensitization; also recorded: sensitizes
- BIM expression ([6]; SDH inhibition with TTFA): induction of BIM
- BIM-Bcl-2 binding (co-immunoprecipitation) ([6]; SDH inhibition with TTFA): enhanced BIM-Bcl-2 binding
- Foxo3a localization ([6]; TTFA treated cells): nuclear localization
- Foxo3a phosphorylation ([6]; TTFA treated cells): reduction of Foxo3a phosphorylation
- Cytotoxicity in normal cells of myeloma patient sample [3]: did not exhibit significant cytotoxicity
- Cytotoxicity as single agent in MM [1]: did not elicit cytotoxicity
- Sensitization of resistant MM cell lines to ABT-199 [1]: potent sensitization; also recorded: sensitizes MM cells to ABT-199; also recorded: sensitized resistant MM cells to ABT-199
- Effect on Dex-induced death ([1]; TTFA 100 uM, DEX 0.5 uM, ABT-199 0.5 uM, 24 hrs): additive to Dex-induced death
